According to US9296754B2, “Compounds and compositions for the treatment of parasitic diseases” (Novartis AG, priority 2013, dated 2016):

Legend:
[1] = tested on: Leishmania donovani axenic amastigote parasites; experiment: Leishmania donovani axenic amastigote proliferation assay (Cell TiterGlo luminescence); format: cell-based; conditions: 48 h, axenic amastigotes, 2 day incubation, read-out: L. donovani amastigotes EC50
Protocol: Leishmania donovani Axenic Amastigote Proliferation Assay […] At the same time control compounds and DMSO are added to plates to serve as the positive and negative controls, respectively. 40 μL of parasite culture (9600 parasites) are then added to the plate wells. The plates are then placed into incubators. After 2 day incubation, 20 μL of Cell TiterGlo (Promega) is added to the plate wells. The luminescence signal of each well is measured using the Envision reader (Perkin Elmer).

[2] = tested on: Trypanosoma brucei Lister 427 strain, bloodstream form; experiment: Proliferation of Trypanosoma brucei (Cell Titer Glo); format: cell-based; conditions: 48 hours, read-out: T. brucei EC50
Text: Assay for Proliferation of Kinetoplastid Parasite Trypanosoma brucei. The proliferation is quantified by the addition of Cell Titer Glo (Promega®) a luminescent cell viability assay that measures the number of viable cells in culture based on the quantification of cellular ATP amount, which is an indicator of metabolically active cells. The following assay illustrates the invention without in any way limiting the scope of the invention. This parasite proliferation assay measures the increase in parasite growth using an assay that measures ATP activity, Cell Titer Glo®. […] Then 25 μl of a suspension of T. brucei culture in HMI-9 media is dispensed into the assay plates. […] The plates are then read for luminescence.

EC50 [1]: 4200 nM
EC50 [2]: 479 nM
SMILES: CON(C)C(=O)Nc1cccc(-c2cn3cc(NC(=O)OC(C)C)cnc3n2)c1 [Compound 14, propan-2-yl N-[2-(3-{[methoxy(methyl)carbamoyl]amino}phenyl)imidazo[1,2-a]pyrimidin-6-yl]carbamate]
